“Also recorded” adds a separate entry of the source. Read-outs that look alike come from different tables or passages of the source.
Experiments:
[1] = system: MOSs derived from multiple myeloma (MM) bone marrow biopsies; assay: Multiple myeloma MOS apoptosis assay, Caspase 3/7 green dye, Incucyte imaging; assay type: cell-based, human; conditions: imaged every 2 hours for 4 days
Description: FIGS. 36A and 36B show the efficacy of Lenalidomide and Bortezoid on MOSs derived from multiple myeloma (MM) bone marrow biopsies. MM MOSs (on day 11) were treated with Lenalidomine (5 uM) or Bortezoid (2 nM). Caspase 3/7 green dye was added in the assay to monitor apoptosis. Incucyte images were taken every 2 hours for 4 days. […] If this test were run on, for example, traditional bulk organoids, the results would not be reliable (due to the lack of patient immune cells) leading to uncertainty in the best course of action for patient treatment.

[2] = system: PDX19187 bulk organoids and MOSs; assay type: cell-based, human; conditions: cell viabilities measured after 3 days of treatment
Description: (§1) Organoids were formed from Patient Derived Xenograft cells (including the PDX240 cells described above and a second PDX cell line, PDX19187) and were compared with MOSs formed using the same cells. The organoids were formed using conventional techniques in which a large mass of MATRIGEL in a well or dish was seeded with cells and cultured until growth was confirmed. MOSs were generated from the traditional organoids.
(§2) Both traditional (“bulk”) organoids and the MOSs were then treated with the same drugs (e.g., Oxaliplatin or SN38) and cell viabilities were measured after 3 days of treatment.

[3] = system: tumor MOSs generated from a patient biopsy; assay: Drug screen on MOSs from patient biopsy (Example 2); assay type: cell-based, human; conditions: Example 2 patient biopsy
tumor [4] = assay: Actual tumor response of the patient to treatment (Example 2); assay type: in vivo, human; conditions: Example 2 patient, before vs post treatment
[5] = system: MOSs generated from biopsy material; assay: Drug effect screen on MOSs from biopsy material (Example 3); assay type: cell-based, human; conditions: Example 3 patient biopsy
Description: (§3) In a similar set of experiments, MOSs were generated from biopsy material (FIG. 23A), and a drug effect screen was performed using the resulting MOSs. […] Thus, the MOSs correlated strongly with patient response to the standard of care drugs. In this case, the patient endured six months of side effects and toxicities that may have been avoided by the predicted response from the MOSs, indicating (within 7-10 days from the biopsy) that the tumor would not respond to these drugs.

traditional cell line = assay: Traditional (2D) cell line dosed with drug; assay type: cell-based; conditions: all dose ranges examined
From the text: As mentioned above, the MOSs and methods of using them to screen for drug compositions may be used to accurately predict the response of a patient tumor to one or more drug therapies. […] For example, in FIG. 22A-22D, the MOSs, but not a cell line, was able to correlate with patient response.

tumor [6] = assay: Patient response to standard of care drugs (Example 3); assay type: in vivo, human; conditions: patient treated with both Oxalipalatin and Irinotecan, after 6 months of treatment
Description: as §3

[7] = system: PDX240 bulk organoids and MOSs; assay: Drug response of bulk organoids vs MOSs, cell viability, PDX240; assay type: cell-based, human; conditions: cell viabilities measured after 3 days of treatment
From the text: The MOSs may be formed from cell lines grown as part of a Patient Derived Xenograft (PDX). For example, FIGS. 28A-28D illustrate MOSs formed from cultured PDX240 cells. PDX240 cells are a Patient Derived Xenograft (PDX) tumor cell line (numbered 240 based on patient source) that were human tumors grown in immunodeficient mice (PDX) to form in vivo tumors. The xenograft tissue was extracted dissociated, and used to form MOSs as described above. In this example a single cell was included in each MOS as it was formed. […] With progressive time in culture, at least some of the MOSs show the cells dividing and forming structures.
as §1, §2

[8] = system: MOSs derived from renal tumor biopsies; assay: IO assay of renal tumor MOSs, Annexin V apoptosis marker; assay type: cell-based, human; conditions: MOSs from renal tumor biopsy
Description: IO assays of the MOSs for these pulmonary and renal tumor biopsies were prepared with an Annexin V marker to indicate cellular apoptosis. […] If this test were run on, for example, traditional bulk organoids, the results would not be meaningful (due to the lack of patient immune cells) leading to uncertainty in the best course of action for patient treatment, […]

[9] = system: MOSs derived from a pulmonary tumor biopsy; assay: IO assay of pulmonary tumor MOSs, Annexin V apoptosis marker; assay type: cell-based, human
Description: IO assays of the MOSs for these pulmonary and renal tumor biopsies were prepared with an Annexin V marker to indicate cellular apoptosis. […] If this test were run on, for example, traditional bulk organoids, the results would not be meaningful (due to the lack of patient immune cells) leading to uncertainty in the best course of action for patient treatment,
(§4) IO assays of the MOSs for this pulmonary tumor biopsy were prepared with an Annexin V marker to indicate cellular apoptosis. […] If this test were run on, for example, traditional bulk organoids, the results would be less accurate (because ESK1 would not be able to reach its target) leading to uncertainty in the best course of action for patient treatment.
as §4, with “apoptosis and Cytolight Red dye to indicate tumor infiltrating lymphocytes (TILs).” for “apoptosis.”, “(due” for “(because ESK1 would not be able”, “the inability of PBMC to penetrate the traditional bulk organoids)” for “reach its target)”
This is an indication that TILs can penetrate MOS to kill tumor cells. […]

human liver MOSs = assay: Toxicity assay using human liver MOSs; assay type: cell-based; conditions: 10 mM
From the text: Similarly, FIGS. 34A-34B also show toxicity assays using human liver MOSs.

mouse liver MOSs = assay: Toxicity assay using mouse liver MOSs; assay type: cell-based; conditions: 10 mM

Nc1cccc2c1CN(C1CCC(=O)NC1=O)C2=O (centres unmarked) [Lenalidomide]
response in the form of tumor cell apoptosis (Caspase 3/7 green dye) ([1]; MM MOSs on day 11, 5 uM): good response
response in the form of tumor cell apoptosis (Caspase 3/7 green dye) ([1]; MM MOSs on day 11, 5 uM, listed as Lenalidomine): induces apoptosis

O=C1[O][Pt]2([NH][C@@H]3CCCC[C@H]3[NH]2)[O]C1=O [Oxaliplatin]
drug response curves, bulk organoids compared with MOSs ([2]; listed as Oxalipalatin): comparable response
cell survival from the tumor MOSs [3]: significant decreases in cell survival
tumor response to treatment (tumor [4]): responded to treatment
percent survival of the MOSs in the presence of the drug [5]: no change
effect of drug on cell line (traditional cell line): no effect
patient response (tumor [6]): no response

CCc1c2c(nc3ccc(O)cc13)-c1cc3c(c(=O)n1C2)COC(=O)[C@]3(O)CC [SN38, 7-Ethyl-10-hydroxy-camptothecin]
drug response curves, bulk organoids compared with MOSs [2]: comparable responses
drug response curves, bulk organoids compared with MOSs [7]: comparable responses

Nivolumab
response in the form of tumor cell apoptosis (Annexin V marker) [8]: induces apoptosis; also recorded: good response
response in the form of tumor cell apoptosis (Annexin V marker) [9]: induces apoptosis; also recorded: good response

CC(=O)Nc1ccc(O)cc1 [acetaminophen]
tissue in the treated MOSs compared with control group (human liver MOSs): significant increase atypical tissue structures (arrows) and debris
tissue in the MOSs compared with control group (mouse liver MOSs): smaller and contains many dead cells

CCc1c2c(nc3ccc(OC(=O)N4CCC(N5CCCCC5)CC4)cc13)-c1cc3c(c(=O)n1C2)COC(=O)[C@]3(O)CC [Irinotecan]
percent survival of the MOSs in the presence of the drug [5]: lack of effect
patient response (tumor [6]): no response

CC(C)C[C@H](NC(=O)[C@H](Cc1ccccc1)NC(=O)c1cnccn1)B(O)O [Bortezoid]
response in the form of tumor cell apoptosis (Caspase 3/7 green dye) ([1]; MM MOSs on day 11, 2 nM): does not and not

Reference: US20260055431A1, “METHODS OF DELIVERING COMPONENTS TO MICROORGANOSPHERES” (Xilis, Inc., priority 2022, published 2026)
